The source of these data is US8134015B2, “Compound inhibiting in vivo phosphorous transport and medicine containing the same” (Kyowa Hakko Kirin Co., Ltd., priority 2003, dated 2012).

The first test concerns the target T1, rat NaPi-2b (Rattus norvegicus, UniProt Q9JJ09).
T1 construct: expressed in transfected cells; host or cells: Xenopus oocytes injected with cRNA
T1 sequence (Q9JJ09 1-695): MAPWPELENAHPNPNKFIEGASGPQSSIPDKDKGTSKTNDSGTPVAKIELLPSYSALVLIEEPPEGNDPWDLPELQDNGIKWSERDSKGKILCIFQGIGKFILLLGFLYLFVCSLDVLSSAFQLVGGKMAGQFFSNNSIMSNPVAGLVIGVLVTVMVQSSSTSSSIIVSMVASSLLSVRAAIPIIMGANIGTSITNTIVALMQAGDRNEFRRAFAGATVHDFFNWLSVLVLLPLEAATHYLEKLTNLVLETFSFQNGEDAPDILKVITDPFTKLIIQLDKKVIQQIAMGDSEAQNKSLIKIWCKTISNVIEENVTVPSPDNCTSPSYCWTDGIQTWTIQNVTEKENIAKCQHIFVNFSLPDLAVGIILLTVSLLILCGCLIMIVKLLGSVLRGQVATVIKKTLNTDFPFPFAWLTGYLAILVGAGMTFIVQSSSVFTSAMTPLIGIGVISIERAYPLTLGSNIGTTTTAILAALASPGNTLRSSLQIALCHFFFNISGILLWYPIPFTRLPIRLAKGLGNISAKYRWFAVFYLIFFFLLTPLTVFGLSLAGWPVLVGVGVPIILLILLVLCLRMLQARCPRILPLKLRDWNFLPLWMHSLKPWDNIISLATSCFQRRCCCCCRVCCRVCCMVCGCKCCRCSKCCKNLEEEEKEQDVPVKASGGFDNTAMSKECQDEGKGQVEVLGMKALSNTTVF
Put plainly: Sodium-dependent phosphate uptake of Xenopus oocytes which expressed NaPi-2b (32P). The following applies: Xenopus oocytes expressing rat NaPi-2b, 32P radioactive phosphorus; read-out: IC50 (phosphate uptake inhibitory activity). The format is cell-based. As for the experimental part: Pharmacological Test Example 1
Experiment of Sodium-Dependent Phosphate Uptake of Xenopus oocytes which Expressed NaPi-2b
Degenerate primers were prepared from sequences of mouse NaPi-2b disclosed in Hilfiker H. et al., Pro Natl Acad Sci USA, 95 (24): 14564-14569, […] and sequences of human and rat NaPi-2a disclosed in Magagnin S. et al., Proc Natl Aca Sci USA, 90 (13): 5979-5983, 1993. RNA was extracted from the rat small intestine using ISOGEN; manufactured by NIPPON GENE CO., LTD (Japan). 400 bp gene fragments were obtained by PCR using, as a template, a cDNA library prepared with a cDNA synthesis kit (manufactured by STRATAGENE (US)). Thereafter, the above rat small intestine cDNA library was screened using the gene fragment as a probe, and the whole gene sequence of rat NaPi-2b was cloned. cRNA was synthesized from the cloned rat NaPi-2b cDNA with a cRNA synthesis kit (manufactured by Ambion (US)). The synthesized cRNA was injected into Xenopus oocytes (obtained from COPACETIC (Japan)) with a liquid microinjector (manufactured by Drummond (US)) and was cultured for 2 days to express rat NaPi-2b. Thereafter, for a group of derivatives, phosphate uptake inhibitory activity were measured using the Xenopus oocytes with ^32P radioactive phosphorus (manufactured by Daiichi Kagaku Inc. (Japan)). […] The inhibitory activity for 300 μM and 100 μM was determined from the same inhibition curve and expressed in percentage inhibition (%) in Table 5.
Consider `CCOCCN(CCOCC)Cc1ccc(C(=O)Nc2ccc(Br)cc2C(=O)N/N=C/c2cccc(C)c2)cc1` [Compound 735, 4-{[Bis-(2-ethoxy-ethyl)-amino]-methyl}-N-[4-bromo-2-(3-methyl-benzylidene-hydrazinocarbonyl)-phenyl]-benzamide], for which the concentration for half-maximal inhibition (IC50) was found to be 18.3 µM. Same read-out and setting: for `O=C(Nc1ccc(Br)cc1C(=O)N/N=C/c1cccc(F)c1)c1ccc(F)cc1` [Compound 105, N-[4-Bromo-2-(3-fluoro-benzylidene-hydrazinocarbonyl)-phenyl]-4-fluoro-benzamide] the value was 7.29 µM. On the same count and under the same terms, for `CCN(CCO)Cc1ccc(C(=O)Nc2ccc(Cl)cc2C(=O)N/N=C/c2ccc(C)c(C)c2)cc1` [Compound 436, N-[4-Chloro-2-(3,4-dimethyl-benzylidene-hydrazinocarbonyl)-phenyl]-4-{[ethyl-(2-hydroxy-ethyl)-amino]-methyl}-benzamide] the value was 8.36 µM. The same measure, in the same setting: the same measure for `Cc1cccc(/C=N/NC(=O)c2cc(Br)ccc2NC(=O)c2ccc(CSCCCO)cc2)c1` [Compound 275, N-[4-Bromo-2-(3-methyl-benzylidene-hydrazinocarbonyl)-phenyl]-4-(3-hydroxy-propylsulfanylmethyl)-benzamide]: 1.73 µM; for `Cc1ccc(/C=N/NC(=O)c2cccnc2NC(=O)c2cccc(CN(CC(C)O)CC(C)O)c2)cc1` (stereo not shown) [Compound 965, 3-{[Bis-(2-hydroxy-propyl)-amino]-methyl}-N-[3-(4-methyl-benzylidene-hydrazinocarbonyl)-pyridin-2-yl]-benzamide]: 27.2 µM.

On to `COc1ccc(C(=O)Nc2ccccc2C(=O)N/N=C/c2cc(C(C)(C)C)c(O)c(C(C)(C)C)c2)cc1OC` [Compound 6, N-[2-(3,5-Di-tert-butyl-4-hydroxy-benzylidene-hydrazinocarbonyl)-phenyl]-3,4-dimethoxy-benzamide], for which the half-maximal inhibitory concentration (IC50) is 5.38 µM. Regarding `Cc1cccc(/C=N/NC(=O)c2cc(Cl)ccc2NC(=O)c2cccc(CN(CCO)CCO)c2)c1` [Compound 404, 3-{[Bis-(2-hydroxy-ethyl)-amino]-methyl}-N-[4-chloro-2-(3-methyl-benzylidene-hydrazinocarbonyl)-phenyl]-benzamide], the half-inhibitory concentration (IC50) worked out at 2.18 µM.

Regarding `CC(O)CN(Cc1cccc(C(=O)Nc2ccc(F)cc2C(=O)N/N=C/c2ccc(Cl)c(C(F)(F)F)c2)c1)CC(C)O` (stereo not shown) [Compound 857, 3-{[Bis-(2-hydroxy-propyl)-amino]-methyl}-N-[2-(4-chloro-3-trifluoromethyl-benzylidene-hydrazinocarbonyl)-4-fluoro-phenyl]-benzamide], the IC50 is 1.18 µM. Still for that read-out and setting: the same measure for `CC(O)CN(Cc1cccc(C(=O)Nc2ccc(F)cc2C(=O)Nc2ccc(F)cc2C(=O)N/N=C/c2cccc(F)c2)c1)CC(C)O` (stereo not shown) [Compound 988, 2-(3-{[Bis-(2-hydroxy-propyl)-amino]-methyl}-benzoylamino)-5-fluoro-N-[4-fluoro-2-(3-fluoro-benzylidene-hydrazinocarbonyl)-phenyl]-benzamide]: 3.88 µM; for `CCN(CC)CCN(C)Cc1cccc(C(=O)Nc2sc3c(c2C(=O)N/N=C(\C)c2cccc(F)c2)CCCC3)c1` [Compound 1003, 3-{[(2-Diethylamino-ethyl)-methyl-amino]-methyl}-N-{3-[1-(3-fluoro-phenyl)-ethylidene-hydrazinocarbonyl]-4,5,6,7-tetrahydro-benzo[b]thiophen-2-yl}-benzamide]: 9.12 µM. Still for that read-out and setting: for `CCN(CC)CCN(C)Cc1cccc(C(=O)Nc2ccc(OCCOC)cc2C(=O)N/N=C/c2cccc(F)c2)c1` [Compound 1025, 3-{[(2-Diethylamino-ethyl)-methyl-amino]-methyl}-N-[2-(3-fluoro-benzylidene-hydrazinocarbonyl)-4-(2-methoxy-ethoxy)-phenyl]-benzamide] the value was 5.71 µM; for `CCN(CC)CCN(C)Cc1cccc(C(=O)Nc2ccc(I)cc2C(=O)N/N=C/c2ccc(OC)cc2)c1` [Compound 479, 3-{[(2-Diethylamino-ethyl)-methyl-amino]-methyl}-N-[4-iodo-2-(4-methoxy-benzylidene-hydrazinocarbonyl)-phenyl]-benzamide], less than 3 µM. Same read-out and setting: the same measure for `CCN(CC)CCN(C)Cc1cccc(C(=O)Nc2ccc(OCC3CCCCC3)cc2C(=O)N/N=C/c2ccc(Cl)c(C(F)(F)F)c2)c1` [Compound 1049, N-[2-(4-Chloro-3-trifluoromethyl-benzylidene-hydrazinocarbonyl)-4-cyclohexylmethoxy-phenyl]-3-{[(2-diethylamino-ethyl)-methyl-amino]-methyl}-benzamide]: less than 1 µM.

Regarding `O=C(Nc1ccc(Br)cc1C(=O)N/N=C/c1cccc(F)c1)c1ccc(CN2CCN(CC(=O)N3CCOCC3)CC2)cc1` [Compound 731, N-[4-Bromo-2-(3-fluoro-benzylidene-hydrazinocarbonyl)-phenyl]-4-[4-(2-morpholin-4-yl-2-oxo-ethyl)-piperazin-1-ylmethyl]-benzamide], the IC50 was determined as 19.2 µM.

As to `CN(CCCN(C)Cc1cccc(C(=O)Nc2ccc(Cl)cc2C(=O)N/N=C/c2cccc(F)c2)c1)Cc1cccc(C(=O)Nc2ccc(Cl)cc2C(=O)N/N=C/c2cccc(F)c2)c1` [Compound 685, N1-[4-Chloro-2-({2-[(E)-1-(3-fluorophenyl)methylidene]hydrazino}carbonyl}phenyl}-3-{[{3-[(3-{[4-chloro-2-({2-[(E)-1-(3-fluorophenyl)methylidene]hydrazino}carbonyl}-anilino}carbonyl}benzyl}(methyl)amino)propyl)(methyl)amino]methyl]-benzamide], the IC50 was found to be 36.4 µM. Regarding `CCN(CC)CCN(Cc1cccc(C(=O)Nc2sc3c(c2C(=O)N/N=C/c2ccc(OC)cc2)CCCC3)c1)C(C)=O` [Compound 657, 3-{[Acetyl-(2-diethylamino-ethyl)-amino]-methyl}-N-[3-(4-methoxy-benzylidene-hydrazinocarbonyl)-4,5,6,7-tetrahydro-benzo[b]thiophen-2-yl]-benzamide], the half-inhibitory concentration (IC50) was found to be 2.63 µM. Same read-out and setting: for `COc1ccc(C(=O)Nc2ccc(I)cc2C(=O)N/N=C/c2ccc(C)c(C)c2)cc1OC` [Compound 208, N-[2-(3,4-Dimethyl-benzylidene-hydrazinocarbonyl)-4-iodo-phenyl]-3,4-dimethoxy-benzamide] the value was less than 0.3 µM; for `CC(O)CN(Cc1ccc(C(=O)Nc2ccc(Br)cc2C(=O)N/N=C/c2ccc(F)cc2)cc1)CC(C)O` (stereo not shown) [Compound 719, 4-{[Bis-(2-hydroxy-propyl)-amino]-methyl}-N-[4-bromo-2-(4-fluoro-benzylidene-hydrazinocarbonyl)-phenyl]-benzamide], 9.59 µM. The same measure, in the same setting: for `CN(C)CCn1nnnc1SCc1cccc(C(=O)Nc2ccc(Cl)cc2C(=O)N/N=C/c2cccc(F)c2)c1` [Compound 462, N-[4-Chloro-2-(3-fluoro-benzylidene-hydrazinocarbonyl)-phenyl]-3-[1-(2-dimethylamino-ethyl)-1H-tetrazol-5-ylsulfanylmethyl]-benzamide] the value was less than 3 µM; for `COc1ccc(NC(=O)c2cccc(CSCC(O)CO)c2)c(C(=O)N/N=C/c2ccc(C)c(C)c2)c1` (stereo not shown) [Compound 1019, 3-(2,3-Dihydroxy-propylsulfanylmethyl)-N-[2-(3,4-dimethyl-benzylidene-hydrazinocarbonyl)-4-methoxy-phenyl]-benzamide], 0.41 µM.

Still in this test, the particulars now being: phosphate uptake, oocytes expressing rat NaPi-2b; 300 μM, determined from inhibition curve.
For `CC(O)CN(Cc1cccc(C(=O)Nc2ncccc2C(=O)N/N=C/c2cccc(F)c2)c1)CC(C)O` (stereo not shown) [Compound 964, 3-{[Bis-(2-hydroxy-propyl)-amino]-methyl}-N-[3-(3-fluoro-benzylidene-hydrazinocarbonyl)-pyridin-2-yl]-benzamide], testing at 300 µM gave an inhibition of 67.5%.

`COc1cccc(/C=N/NC(=O)c2cc(Br)ccc2NC(=O)c2ccc(CN3CCN(c4ccccn4)CC3)cc2)c1` [Compound 778, N-[4-Bromo-2-(3-methoxy-benzylidene-hydrazinocarbonyl)-phenyl]-4-(4-pyridin-2-yl-piperazin-1-ylmethyl)-benzamide] had an inhibition at 300 µM of 39.1%.
